Key:
Mus musculus [1] = assay: Effective dose required for anticonvulsant activity by ip administration against clonic phase of audiogenic seizures in DBA/2 mice after pretreatment with aniracetam+ 2,3-benzodiazepine (p<0.01); type: functional
Mus musculus [2] = assay: Effective dose required for anticonvulsant activity against Clonic phase of seizure in DBA/2 mice 120 minutes after ip administration of the compound; type: functional; settings: 2 h
Mus musculus [3] = species: Mus musculus; assay: Ratio of TD50 to ED50, expressed as protective index; type: functional
Mus musculus [4] = assay: Effective dose required for anticonvulsant activity by ip administration against tonic phase of audiogenic seizures in DBA/2 mice after pretreatment with aniracetam+ 2,3-benzodiazepine (p<0.01); type: functional
Mus musculus [5] = assay: Effective dose required for anticonvulsant activity against Clonic phase of seizure in DBA/2 mice 60 minutes after ip administration of the compound; type: functional; settings: 1 h
Mus musculus [6] = assay: Effective dose required for anticonvulsant activity against Clonic phase of seizure in DBA/2 mice 45 minutes after ip administration of the compound; type: functional; settings: 0.75 h
Mus musculus [7] = assay: Effective dose required for anticonvulsant activity against Clonic phase of seizure in DBA/2 mice 30 minutes after ip administration of the compound; type: functional; settings: 0.5 h
[8] = Anticonvulsant activity against audiogenic Clonic seizures in DBA/2 mice, administered ip 30 minutes before auditory stimulation.; type: functional; settings: Mus musculus
Mus musculus [9] = assay: Effective dose required for anticonvulsant activity against Clonic phase of seizure in DBA/2 mice 15 minutes after ip administration of the compound; type: functional; settings: 0.25 h
[10] = Anticonvulsant activity against audiogenic tonic seizures in DBA/2 mice, administered ip 30 minutes before auditory stimulation; type: functional; settings: Mus musculus
Mus musculus [11] = assay: Effective dose required for anticonvulsant activity against AMPA-induced clonic seizure in Swiss mice 45 minutes after ip administration of the compound; type: functional; settings: 0.75 h
Mus musculus [12] = species: Mus musculus; assay: Percent reduction of KA-evoked current with the patch clamp technique in cerebellar granule neurons grown in primary culture at a dose level of 100 uM was evaluated; type: functional
Mus musculus [13] = assay: Effective dose required for anticonvulsant activity against PTZ-induced Clonic seizure in Swiss mice 45 minutes after ip administration of the compound; settings: 0.75 h
Mus musculus [14] = assay: Effective dose required for anticonvulsant activity against Clonic phase of seizure in DBA/2 mice 90 minutes after ip administration of the compound; type: functional; settings: 1.5 h
Mus musculus [15] = assay: Effective dose required for anticonvulsant activity against AMPA-induced Tonic seizure in DBA/2 mice 45 minutes after ip administration of the compound; settings: 0.75 h
Mus musculus [16] = assay: Effective dose required for anticonvulsant activity against MES-induced Tonic seizure in Swiss mice 45 minutes after ip administration of the compound; type: functional; settings: 0.75 h
Mus musculus [17] = assay: Effective dose required for anticonvulsant activity against KA-induced seizure was evaluated in Swiss mice on sc administration at CD97 (32 mg/kg) 15 minutes after ip injection of compound.; type: functional; settings: 0.25 h
Mus musculus [18] = species: Mus musculus; assay: Dose required to produce locomotor deficit assessed by rotarod test in DBA/2 mice.; type: functional
Mus musculus [19] = assay: Effective dose required for anticonvulsant activity against AMPA-induced tonic seizure in Swiss mice 45 minutes after ip administration of the compound; type: functional; settings: 0.75 h

With Nc1ccc(C2NNC(=O)Cc3cc4c(cc32)OCO4)cc1 (centres undefined) the ED50 (Mus musculus [1]) was 52.3 µmol/kg, the ED50 (Mus musculus [2]) was 39.5 µmol/kg and the Ratio (Mus musculus [3]) was 3.6. For the same compound, the ED50 (Mus musculus [4]) was 33.1 µmol/kg, the ED50 (Mus musculus [5]) was 23.4 µmol/kg and the ED50 (Mus musculus [6]) was 18.7 µmol/kg. It also gave an ED50 (Mus musculus [7]) of 11.4 µmol/kg, an ED50 [8] of 11.4 µmol/kg and an ED50 (Mus musculus [9]) greater than 50 µmol/kg. The ED50 [10] was 6.47 µmol/kg, the ED50 (Mus musculus [11]) was 24.6 µmol/kg and the Reduction (Mus musculus [12]) was 38%. The ED50 (Mus musculus [13]) was 59.7 µmol/kg, the ED50 (Mus musculus [14]) was 37.1 µmol/kg and the ED50 (Mus musculus [15]) was 17.5 µmol/kg. It also gave an ED50 (Mus musculus [16]) of 35.7 µmol/kg and an ED50 (Mus musculus [17]) of 15.9 µmol/kg.

With CCC(=O)NN1N=C(c2ccc(N)cc2)c2cc3c(cc2CC1=O)OCO3 the Ratio (Mus musculus [3]) was 3.6, the ED50 [8] was 11.4 µmol/kg and the ED50 [10] was 6.47 µmol/kg. For the same compound, the TD50 (Mus musculus [18]) was 41.2 µM/kg.

For CCC(=O)NN1NC(c2ccc(N)cc2)c2cc3c(cc2CC1=O)OCO3 (centres undefined), the Ratio (Mus musculus [3]) was 3.5, the ED50 [8] was 24.6 µmol/kg and the ED50 [10] was 18.1 µmol/kg. It also gave a TD50 (Mus musculus [18]) of 86.1 µM/kg.

Compound CCCC(=O)NN1N=C(c2ccc(N)cc2)c2cc3c(cc2CC1=O)OCO3 has a Ratio (Mus musculus [3]) of 3.4, an ED50 [8] of 69.4 µmol/kg and an ED50 [10] of 5.09 µmol/kg. The TD50 (Mus musculus [18]) was 398 µM/kg.

In the case of CCCCC(=O)NN1N=C(c2ccc(N)cc2)c2cc3c(cc2CC1=O)OCO3, the Ratio (Mus musculus [3]) is reported as 4.7, the ED50 [8] is reported as 22.4 µmol/kg and the ED50 [10] is reported as 14.2 µmol/kg. It also gave a TD50 (Mus musculus [18]) of 673 µM/kg.

Work on Nc1ccc(C2=NNC(=O)Cc3cc4c(cc32)OCO4)cc1 yielded an ED50 (Mus musculus [19]) of 27 µmol/kg and an ED50 (Mus musculus [11]) of 37.6 µmol/kg.

Work on CC(=O)NN1N=C(c2ccc(N)cc2)c2cc3c(cc2CC1=O)OCO3 yielded a Ratio (Mus musculus [3]) of 4.5, an ED50 [8] of 15.4 µmol/kg and an ED50 [10] of 10.9 µmol/kg. For the same compound, the ED50 (Mus musculus [18]) was 99.1 µmol/kg.

Compound CCCC(=O)NN1NC(c2ccc(N)cc2)c2cc3c(cc2CC1=O)OCO3 (centres undefined) has a Ratio (Mus musculus [3]) of 2.8, an ED50 [8] of 38.7 µmol/kg and an ED50 [10] of 32.6 µmol/kg. The TD50 (Mus musculus [18]) was 108 µM/kg.

Work on CC(=O)NN1NC(c2ccc(N)cc2)c2cc3c(cc2CC1=O)OCO3 (centres undefined) yielded a Ratio (Mus musculus [3]) of 2.6, an ED50 [8] of 69.4 µmol/kg and an ED50 [10] of 49.2 µmol/kg. For the same compound, the TD50 (Mus musculus [18]) was 182 µM/kg.

In the case of O=C1Cc2cc3c(cc2C(c2ccccc2)=NN1)OCO3, the Ratio (Mus musculus [3]) is reported as 3.7.

CC1=NN=C(c2ccc(N)cc2)c2cc3c(cc2C1)OCO3 [GYKI-52466] gave a Ratio (Mus musculus [3]) of 2.1.

Reference: ChEMBL document CHEMBL1134185, “Synthesis and anticonvulsant activity of novel and potent 1-aryl-7,8-methylenedioxy-1,2,3,5-tetrahydro-4H-2,3-benzodiazepin-4-ones” (2001)
